Experimental data taken from ChEMBL document CHEMBL1148029, “Synthesis and radiopharmacological characterization of 2beta-carbo-2'-[18F]fluoroethoxy-3beta-(4-bromo-phenyl)tropane ([18F]MCL-322) as a PET radiotracer for imaging the dopamine transporter (DAT)” (Bioorg Med Chem, 2007).

Columns and labels:
Cerebellum [1] = assay: Biodistribution in Wistar rat cerebellum at 300 uCi, iv after 5 mins; format: ADME, organism-based; details: in vivo
Pancreas [2] = assay: Biodistribution in Wistar rat pancreas at 300 uCi, iv after 120 mins; format: ADME, organism-based; details: in vivo, 2 h
Kidney [3] = assay: Biodistribution in Wistar rat kidney at 300 uCi, iv after 20 mins; format: ADME, organism-based; details: in vivo
Striatum [4] = assay: Biodistribution in Wistar rat striatum at 300 uCi, iv after 240 mins; format: ADME, organism-based; details: in vivo, 4 h
Blood [5] = assay: Biodistribution in Wistar rat blood at 300 uCi, iv after 20 mins; format: ADME, organism-based; details: in vivo
Spleen [6] = assay: Biodistribution in Wistar rat spleen at 300 uCi, iv after 20 mins; format: ADME, organism-based; details: in vivo
Plasma [7] = assay: Metabolic stability in Wistar rat plasma assessed as polar metabolite level at 1 mCi, iv after 1.5 mins; format: ADME, organism-based; details: in vivo, 0.025 h
[8] = Biodistribution in Wistar rat hair and skin at 300 uCi, iv after 60 mins; format: ADME, organism-based; details: in vivo, 1 h
Femur [9] = assay: Biodistribution in Wistar rat femur at 300 uCi, iv after 240 mins; format: ADME, organism-based; details: in vivo, 4 h
[10] = Biodistribution in Wistar rat rest of brain at 300 uCi, iv after 240 mins; format: ADME, organism-based; details: in vivo, 4 h
Hippocampus [11] = assay: Biodistribution in Wistar rat hippocampus at 300 uCi, iv after 60 mins in presence of nisoxetine; format: ADME, organism-based; details: in vivo, 1 h
Striatum [12] = assay: Biodistribution in Wistar rat striatum at 300 uCi, iv after 20 mins; format: ADME, organism-based; details: in vivo
Cortex [13] = assay: Biodistribution in Wistar rat cortex at 300 uCi, iv after 120 mins; format: ADME, organism-based; details: in vivo, 2 h
Plasma [14] = assay: Metabolic stability in Wistar rat plasma assessed as polar metabolite level at 1 mCi, iv after 30 mins; format: ADME, organism-based; details: in vivo, 0.5 h
Brain [15] = assay: Biodistribution in Wistar rat rest of brain at 300 uCi, iv after 60 mins in presence of GBR-12909; format: ADME, organism-based; details: in vivo, 1 h
Harderian gland [16] = assay: Biodistribution in Wistar rat harderian glands at 300 uCi, iv after 60 mins; format: ADME, organism-based; details: in vivo, 1 h
[17] = Biodistribution in Wistar rat brown fat at 300 uCi, iv after 5 mins; format: ADME, organism-based, Brown adipose tissue; details: in vivo
Adrenal [18] = assay: Biodistribution in Wistar rat adrenal gland at 300 uCi, iv after 120 mins; format: ADME, organism-based, Adrenal tissue; details: in vivo, 2 h
Heart [19] = assay: Biodistribution in Wistar rat heart at 300 uCi, iv after 5 mins; format: ADME, organism-based; details: in vivo
Striatum [20] = assay: Biodistribution in Wistar rat striatum at 300 uCi, iv after 60 mins in presence of nisoxetine; format: ADME, organism-based; details: in vivo, 1 h
Muscle tissue = assay: Biodistribution in Wistar rat muscle at 300 uCi, iv after 20 mins; format: ADME, organism-based; details: in vivo
Lung [21] = assay: Biodistribution in Wistar rat lung at 300 uCi, iv after 20 mins; format: ADME, organism-based; details: in vivo
Cortex [22] = assay: Biodistribution in Wistar rat cortex at 300 uCi, iv after 60 mins in presence of GBR-12909; format: ADME, organism-based; details: in vivo, 1 h
Kidney [23] = assay: Biodistribution in Wistar rat kidney at 300 uCi, iv after 240 mins; format: ADME, organism-based; details: in vivo, 4 h
[24] = Biodistribution in Wistar rat brown fat at 300 uCi, iv after 240 mins; format: ADME, organism-based, Brown adipose tissue; details: in vivo, 4 h
Hippocampus [25] = assay: Biodistribution in Wistar rat hippocampus at 300 uCi, iv after 60 mins; format: ADME, organism-based; details: in vivo, 1 h
Blood [26] = assay: Biodistribution in Wistar rat blood at 300 uCi, iv after 240 mins; format: ADME, organism-based; details: in vivo, 4 h
Cerebellum [27] = assay: Biodistribution in Wistar rat cerebellum at 300 uCi, iv after 60 mins; format: ADME, organism-based; details: in vivo, 1 h
Lung [28] = assay: Biodistribution in Wistar rat lung at 300 uCi, iv after 5 mins; format: ADME, organism-based; details: in vivo
[29] = Biodistribution in Wistar rat fat at 300 uCi, iv after 60 mins; format: ADME, organism-based, Adipose tissue; details: in vivo, 1 h
Spleen [30] = assay: Biodistribution in Wistar rat spleen at 300 uCi, iv after 5 mins; format: ADME, organism-based; details: in vivo
Pancreas [31] = assay: Biodistribution in Wistar rat pancreas at 300 uCi, iv after 240 mins; format: ADME, organism-based; details: in vivo, 4 h
Thymus [32] = assay: Biodistribution in Wistar rat thymus at 300 uCi, iv after 240 mins; format: ADME, organism-based; details: in vivo, 4 h
Lung [33] = assay: Biodistribution in Wistar rat lung at 300 uCi, iv after 120 mins; format: ADME, organism-based; details: in vivo, 2 h
Thymus [34] = assay: Biodistribution in Wistar rat thymus at 300 uCi, iv after 5 mins; format: ADME, organism-based; details: in vivo
Brain [35] = assay: Biodistribution in Wistar rat rest of brain at 300 uCi, iv after 60 mins in presence of nisoxetine; format: ADME, organism-based; details: in vivo, 1 h
Cortex [36] = assay: Biodistribution in Wistar rat cortex at 300 uCi, iv after 5 mins; format: ADME, organism-based; details: in vivo
Pancreas [37] = assay: Biodistribution in Wistar rat pancreas at 300 uCi, iv after 20 mins; format: ADME, organism-based; details: in vivo
Thymus [38] = assay: Biodistribution in Wistar rat thymus at 300 uCi, iv after 60 mins; format: ADME, organism-based; details: in vivo, 1 h
Pancreas [39] = assay: Biodistribution in Wistar rat pancreas at 300 uCi, iv after 5 mins; format: ADME, organism-based; details: in vivo
[40] = Biodistribution in Wistar rat fat at 300 uCi, iv after 5 mins; format: ADME, organism-based, Adipose tissue; details: in vivo
[41] = Biodistribution in Wistar rat fat at 300 uCi, iv after 120 mins; format: ADME, organism-based, Adipose tissue; details: in vivo, 2 h
[42] = Biodistribution in Wistar rat brown fat at 300 uCi, iv after 20 mins; format: ADME, organism-based, Brown adipose tissue; details: in vivo
Hippocampus [43] = assay: Biodistribution in Wistar rat hippocampus at 300 uCi, iv after 120 mins; format: ADME, organism-based; details: in vivo, 2 h
Adrenal [44] = assay: Biodistribution in Wistar rat adrenal gland at 300 uCi, iv after 240 mins; format: ADME, organism-based, Adrenal tissue; details: in vivo, 4 h
Femur [45] = assay: Biodistribution in Wistar rat femur at 300 uCi, iv after 20 mins; format: ADME, organism-based; details: in vivo
Thymus [46] = assay: Biodistribution in Wistar rat thymus at 300 uCi, iv after 20 mins; format: ADME, organism-based; details: in vivo
Cerebellum [47] = assay: Biodistribution in Wistar rat cerebellum at 300 uCi, iv after 120 mins; format: ADME, organism-based; details: in vivo, 2 h
Cortex [48] = assay: Biodistribution in Wistar rat cortex at 300 uCi, iv after 20 mins; format: ADME, organism-based; details: in vivo
Liver [49] = assay: Biodistribution in Wistar rat liver at 300 uCi, iv after 240 mins; format: ADME, organism-based; details: in vivo, 4 h
Heart [50] = assay: Biodistribution in Wistar rat heart at 300 uCi, iv after 20 mins; format: ADME, organism-based; details: in vivo
Kidney [51] = assay: Biodistribution in Wistar rat kidney at 300 uCi, iv after 5 mins; format: ADME, organism-based; details: in vivo
Blood [52] = assay: Biodistribution in Wistar rat blood at 300 uCi, iv after 60 mins; format: ADME, organism-based; details: in vivo, 1 h
Harderian gland [53] = assay: Biodistribution in Wistar rat harderian glands at 300 uCi, iv after 5 mins; format: ADME, organism-based; details: in vivo
Kidney [54] = assay: Biodistribution in Wistar rat kidney at 300 uCi, iv after 60 mins; format: ADME, organism-based; details: in vivo, 1 h
Harderian gland [55] = assay: Biodistribution in Wistar rat harderian glands at 300 uCi, iv after 240 mins; format: ADME, organism-based; details: in vivo, 4 h
Spleen [56] = assay: Biodistribution in Wistar rat spleen at 300 uCi, iv after 60 mins; format: ADME, organism-based; details: in vivo, 1 h
Blood [57] = assay: Biodistribution in Wistar rat blood at 300 uCi, iv after 5 mins; format: ADME, organism-based; details: in vivo
[58] = Biodistribution in Wistar rat brown fat at 300 uCi, iv after 120 mins; format: ADME, organism-based, Brown adipose tissue; details: in vivo, 2 h
Testes = assay: Biodistribution in Wistar rat testes at 300 uCi, iv after 120 mins; format: ADME, organism-based, Testis; details: in vivo, 2 h
Liver [59] = assay: Biodistribution in Wistar rat liver at 300 uCi, iv after 5 mins; format: ADME, organism-based; details: in vivo
Heart [60] = assay: Biodistribution in Wistar rat heart at 300 uCi, iv after 60 mins; format: ADME, organism-based; details: in vivo, 1 h

CN1C2CCC1C(C(=O)OCC[18F])C(c1ccc(Br)cc1)C2 (configuration not stated)
Drug uptake (Cerebellum [1]): 1.77 % ID/g
Drug uptake (Pancreas [2]): 0.29 % ID/g
Drug uptake (Kidney [3]): 3.51 % ID/g
Drug uptake (Striatum [4]): 2.45 % ID/g
Drug uptake (Blood [5]): 0.07 % ID/g
Drug uptake (Spleen [6]): 1.41 % ID/g
Stability (Plasma [7]): 21%
Drug uptake [8]: 0.29 % ID/g
Drug uptake (Femur [9]): 0.07 % ID/g
Drug uptake [10]: 0.27 % ID/g
Drug uptake (Hippocampus [11]): 0.91 % ID/g
Drug uptake (Striatum [12]): 3.93 % ID/g
Drug uptake (Cortex [13]): 0.45 % ID/g
Stability (Plasma [14]): 76%
Drug uptake (Brain [15]): 1.07 % ID/g
Drug uptake (Harderian gland [16]): 2.37 % ID/g
Drug uptake [17]: 1.46 % ID/g
Drug uptake (Adrenal [18]): 0.35 % ID/g
Drug uptake (Heart [19]): 1.09 % ID/g
Drug uptake (Striatum [20]): 4.18 % ID/g
Drug uptake (Muscle tissue): 0.33 % ID/g
Drug uptake (Lung [21]): 2.58 % ID/g
Drug uptake (Cortex [22]): 0.94 % ID/g
Drug uptake (Kidney [23]): 0.83 % ID/g
Drug uptake [24]: 0.08 % ID/g
Drug uptake (Hippocampus [25]): 1.12 % ID/g
Drug uptake (Blood [26]): 0.03 % ID/g
Drug uptake (Cerebellum [27]): 0.56 % ID/g
Drug uptake (Lung [28]): 6.53 % ID/g
Drug uptake [29]: 0.27 % ID/g
Drug uptake (Spleen [30]): 1.51 % ID/g
Drug uptake (Pancreas [31]): 0.13 % ID/g
Drug uptake (Thymus [32]): 0.08 % ID/g
Drug uptake (Lung [33]): 0.54 % ID/g
Drug uptake (Thymus [34]): 0.89 % ID/g
Drug uptake (Brain [35]): 1.23 % ID/g
Drug uptake (Cortex [36]): 3.19 % ID/g
Drug uptake (Pancreas [37]): 1.23 % ID/g
Drug uptake (Thymus [38]): 0.41 % ID/g
Drug uptake (Pancreas [39]): 2.09 % ID/g
Drug uptake [40]: 4.64 % ID/g
Drug uptake [41]: 0.16 % ID/g
Drug uptake [42]: 0.78 % ID/g
Drug uptake (Hippocampus [43]): 0.42 % ID/g
Drug uptake (Adrenal [44]): 0.17 % ID/g
Drug uptake (Femur [45]): 0.42 % ID/g
Drug uptake (Thymus [46]): 0.82 % ID/g
Drug uptake (Cerebellum [47]): 0.24 % ID/g
Drug uptake (Cortex [48]): 2.29 % ID/g
Drug uptake (Liver [49]): 15.2 % ID/g
Drug uptake (Heart [50]): 0.48 % ID/g
Drug uptake (Kidney [51]): 4.64 % ID/g
Drug uptake (Blood [52]): 0.025 % ID/g
Drug uptake (Harderian gland [53]): 1.46 % ID/g
Drug uptake (Kidney [54]): 3.1 % ID/g
Drug uptake (Harderian gland [55]): 0.93 % ID/g
Drug uptake (Spleen [56]): 0.58 % ID/g
Drug uptake (Blood [57]): 0.16 % ID/g
Drug uptake [58]: 0.21 % ID/g
Drug uptake (Testes): 0.39 % ID/g
Drug uptake (Liver [59]): 3.2 % ID/g
Drug uptake (Heart [60]): 0.21 % ID/g
